These compounds were tested against T1, Dimer of Gag-Pol polyprotein [489-587] (Human immunodeficiency virus 1, UniProt P12497) (assay: Protease Inhibition Assay). Settings: pH 5; 30 °C.
T1 construct: 489-587
Procedure: A fluorimetric assay was used to determine the effects of the inhibitors on HIV-1 protease. This assay used an internally quenched fluorescent peptide substrate. The measurements were performed in 96-well plates with a Fluoroscan plate reader. Excitation and emission wavelengths were 355 nm and 500 nm, respectively.

Row | Compound | Ki [nM]
1 | O=C(N[C@H]1c2ccccc2C[C@H]1O)[C@H](CCc1ccccc1)[C@@H](O)[C@H](O)[C@@H](CCc1ccccc1)C(=O)N[C@H]1c2ccccc2C[C@H]1O [(2R,3R,4R,5R)-3,4-dihydroxy-N,N'-bis[(1S,2R)-2-hydroxy-2,3-dihydro-1H-inden-1-yl]-2,5-bis(2-phenylethyl)hexanediamide] | 1.1
2 | O=C(N[C@H]1c2ccccc2C[C@H]1O)[C@H](CCc1ccccc1)[C@H](O)[C@H](O)[C@@H](CCc1ccccc1)C(=O)N[C@H]1c2ccccc2C[C@H]1O [N1,N6 -Bis[(2R)-hydroxy-(1S)-indanyl]-(2R,3R,4S,5R)-3,4-dihydroxy-2,5-bis(2-phenylethyl)hexanediamide] | 28
3 | O=C(N[C@H]1c2ccccc2C[C@H]1O)[C@H](OCc1ccccc1)[C@H](O)[C@@H](O)[C@@H](OCc1ccccc1)C(=O)N[C@H]1c2ccccc2C[C@H]1O [symmetric/asymmetric inhibitor 2] | 0.6

Source: BindingDB's records for doi:10.1021/jm0011171 (Stockholm University, 2001)
